Source: US11497796B2, “Agents directed against a cis RGMa/neogenin interaction or lipid rafts and use of the same in methods of treatment” (UNIVERSITY HEALTH NETWORK, priority 2013, dated 2022)

Assays:
[1] = test system: RGC axons in injured optic nerve; assay: Optic nerve crush, RGC axon regeneration (GAP-43) and intraretinal integrity; format: in vivo, rat; conditions: for intraretinal integrity of RGC axons (CTB-FITC): after optic nerve crush
Protocol: All animals were female Sprague-Dawley rats weighing 250-300 g, which were kept in a pathogen free environment. […] Injections were performed using a 10-μl Hamilton syringe actuated by a computer controlled Picopump (World Precision Instruments). […] The needle was left in place for 10 min after each injection and slowly withdrawn to prevent reflux of the injected solutions up the needle tract.
Additionally, for crushing nerve surgical procedures, animals were placed in a stereotaxic frame and ventilated with isoflurane (2%; 0.8 L/min O2) through a gas anesthesia mask. […] The optic nerve was crushed using fine self-closing forceps for 6 seconds. Eventually, the orbital contents were gently returned to their original location and the initial incision was closed. Following surgery, under a heat lamp, animal were maintained at 37° C. in the normothermic condition and they were given Ketoprofen (5 mg/mL, dosage for rats: 0.1 mL/100 g bodyweight) and sterile saline to ease postsurgical recovery.
In order to evaluate the effects of 4Ig, N-Raft, and MβCD on RGC survival and regeneration after optic nerve crush, 4 μl intraocular injection of 4Ig (250 ng/μl) and N-Raft (150 ng/μl) solutions were delivered at 3 and 10 days after injury. Additionally, these two groups received 4Ig and N-Raft in a dose of 1 mg/kg, via intrajugular vein at 3 and 10 days postcrush. Separately, animals in MβCD group, received intraperitoneal injection of MβCD at 1000 mg/kg/week for 3 weeks after nerve crush on a once-a-day schedule.
Firstly, RGC axon regeneration and intraretinal integrity was examined at twenty-one days after optic nerve crush. […]. CTB-FITC was anterogradly transported within the axon to reach the synaptic membrane.
RGC axon regeneration was examined at twenty-one days after optic nerve crush. Animals were perfused with 4% paraformaldehyde via the ascending aorta, while the descending aorta was clamped off, and the optic nerves were removed. The nerves were post-fixed overnight in the same fixative solution, plus 30% sucrose in PBS for 7 days at […]. The fixed nerves were consecutively sectioned at 14 μm in thickness with a Leica CM1950 cryostat microtome. The slides were first incubated overnight at 4° C. in primary antisera directed against growth associated protein-43 (GAP-43), a marker of regenerating retinal ganglion cell axons in both neonatal and adult RGCs. Primary antisera (rabbit polyclonal, 1:250, Cell Signaling Technology/NEB) were diluted in PBS containing 0.3% Triton X-100 and 3% normal goat serum. Following primary antibody incubation, sections were rinsed three times for 15 minutes in PBS and followed by three hours incubation with FITC labeled secondary antibody at room temperature.
The slides were then rinsed three times for 15 minutes in PBS before cover slipping with 50:50 glycerol/PBS. The total number of regenerating axon growth cones within bins of the optic nerve, beginning anterior to the crush site and proceeding distally, were quantified. The bins were as follows: 0-250, 250-500, and >500 μm. A total of four equally spaced sections through the width of each optic nerve were examined and quantified using a Leica DM LFSA microscope (20× objective) with an Andor iXon 885+ camera, with EMgain applied.

[2] = test system: retinal ganglion cells (RGCs); assay: RGC survival in vivo 14 days after axotomy; parameters: species or system rat; conditions: for increase of RGC survival vs. control / RGC survival: injected intra-ocularly, 14 days after axotomy; for RGC survival: control 361±19
[3] = test system: retinal ganglion cells (RGCs); assay: Retinal organotypic cultures (whole mounts), propidium iodide cell death; format: cell-based; conditions: for reduction of cell death (relative PI intensity): agent in the medium
Protocol: (A) HEK293 cells that stably express RGMa (FIG. 11) were transfected with empty plasmid (Ctrl) or Neogenin (Neo). Neogenin induced cell death (arrows) when compared to control. (B) Quantification of cell death in Neogenin-transfected cells that were incubated in BSA (Neo+Ctrl), 4Ig (1 μg/ml), N-Raft (1 μg/ml), Noggin (100 nM), or MβCD (10 mM). […] Data were average±SEM (n=3 independent experiments), *p<0.0001. (C) Representative images and (D) Quantification of cell death in chick E5 tecta electroporated with GFP- and a Neogenin-expression plasmid and then injected with N-RGMa50-99 (Ctrl; 1 μg/ml), 4Ig (1 μg/ml), or N-Raft (1 μg/ml) and subjected to TUNEL assay. […] Data were an average±SEM from 3 different tecta/conditions (*p<0.001). Bar, 100 μm. (E) Representative images and (F) Quantification of retinal whole mounts incubated for 4 days with control peptide (1 μg/ml), 4Ig (1 μg/ml), N-Raft (1 μg/ml), or MβCD (10 mM) and dead cells were stained with Propidium Iodide (PI). Images from 9 whole mounts per condition from 3 independent experiments were taken at the same intensities and the fluorescence measured using ImageJ. […] Bar, 500 μm. (G) Fluorescence micrographs of flat-mounted retinas depicting Fluorogold-labeled retinal ganglion cells (RGCs) in injured retinas at 14 days following axotomy. Control retinas (Ctrl) had few surviving RGCs. 4Ig, N-raft or MβCD increased cell survival. Bar, 200 μm. (H) Representations of the retinal areas selected in our analyses. […] Data were average±SEM (n=6 eyes), *p<0.01.
For this study, retinal organotypic cultures were used, in which axotomy of retinal ganglion cells (RGCs) deprived the cells of tropic factors and induced apoptosis. Cell death was detected using propidium iodide (PI) and all images were taken at the same intensity with the RGC-layer in focus. Cell death was gauged by measuring the relative PI intensity of whole mounts.

Molecule | regeneration beyond the lesion site ([1]; 21 days after crush) | intraretinal integrity of RGC axons (CTB-FITC) [1] | increase of RGC survival vs. control [2] | RGC survival [2] [cells/mm^2] | reduction of cell death (relative PI intensity) [3] | average number of axons per section, 250-500 μm ([1]; IP injection) | average number of axons per section, greater than 500 μm ([1]; IP injection) | average number of axons per section, less than 250 μm ([1]; IP injection) | average number of axons per section higher than controls ([1]; IP injection, all distances) [fold] | increase of RGC survival ([2]; systemic application (intraperitoneal, IP)) | enhancement of cell survival vs. control ([3]; perturbing lipid rafts) | increase in number of regenerating axons relative to controls ([1]; 21 days after crush) [fold] | number of regenerating axons, greater than 500 μm ([1]; 21 days after crush, controls 76±24) | number of regenerating axons, 250-500 μm ([1]; 21 days after crush, controls 108±12) | number of regenerating axons, less than 250 μm ([1]; 21 days after crush, controls 224±36)
N-Raft: peptide spanning amino acids 28-73 of RGMa (SEQ ID NO:2) (SPCKILKCNSEFWAATSGSHHLGAEETPEFCTALRAYAHCTRRTAR; N-Raft - amino acids 28-73 of RGMa) | comparable to 4Ig | thicker axon bundles throughout the retina | about 2 fold | 652±24 | about 40% | – | – | – | – | – | – | – | – | – | –
methyl-β-cyclodextrin [MβCD, reference compound] | – | thicker axon bundles throughout the retina | – | – | – | 10.7±0.9 | 8.4±1.4 | 23.7±1.2 | 7.1 | about 2 fold | about 50% | – | – | – | –
4Ig: four immunoglobulin-like domains of Neogenin, amino acids 1 to 383 of Accession No. AAC59662 (SEQ ID NO:1) (protein, listed as Gallus gallus, Neogenin - Accession No. AAC59662) RSGPRSPLTGSVVRTFTPFYFLVEPMDILSVRGASVIMNCSSYCETPPKIEWKKDGTLLNLVSDDRRQLLPDGSLLINSVVHSKHNKPDEGYYQCVATVESLGSIVSRTAKLTVAGLPRFTSQPELSSVYKGNSAILNCEVNVDLAPFVRWEQDRQPLSLDDRVFKLPSGALLIGNATDTDGGFYRCVIESGGTPKYSEEAELKILPDPEEPQSLVFVRQPSSLTKVTGQNAVFPCVAGGFPTPYVRWTKNGEELITEDSERFALRAGGSLLISDVTEEDVGTYTCIADNENETIEAQAELAVQVPPEFLKRPANIYAHESMDIVFECEVTGKPTPTVKWVKNGDVVIPSDYFKIVKEHNLQVLGLVKSDEGFYQCIAENDVGNAQAGAQLIILDLDVAIPTLPPTSLTSATNDHLAPATTGPLPTAPRDVVATLVSTRFIRLTWRTPVSDPQGDNLTYSIFYTKEGINRERVENTSRPGETQVMIQNLMPETVYVFRVVAQNKHGHGESSAPLKVATQPEVQLPGPAPNIRAYAGSPTSVTVTWETPLSGNGEIQNYKLYYMEKGQDSEQDVDVAGLSYTITGLKKYTEYSFRVVAYNKHGPGVSTQDVVVRTLSDVPSAAPQNLTLEARNSKSIMLHWQPPPAGTHSGQITGYKIRYRKVSRKSDVTESVGGTQLFQLIEGLERGTEYNFRIAAMTVNGTGPATDWVSAETFESDLDESRVPEVPSSLHVRPLVTSIVVSWTPPENQNIVVRGYAIGYGIGSPHAQTIKVDYKQRYYTIENLDPSSHYVITLKAFNNVGEGIPLYESAVTRPHSDTSEVDLFVINAPYTPVPDPSPMMPPVGVQASILSHDTIRITWADNSLPKNQKITDARYYTVRWKTNIPANTKYKTANATTLSYLVTGLKPNTLYEFSVMVTKGRRSSTWSMTAHGTTFELVPTSPPKDVTVVSKEGKPRTIIVNWQPPSEANGKITGYIIYYSTDVNAEIHDWVIEPVVGNRLTHQIQELTLDTPYYFKIQARNSKGMGPMSEAVQFRTPKAESSDKMPNDQASGSAGKGSRPVDVGPDYKPPLSGSNSPHGSPTSPLDSNMLLVIIVSVGVITIVIVVIVAVFCTRRTTSHQKKKRAACKSVNGSHKYKGNSKDVKPPDLWIHHERLELKPIDKSPDPNPIMTDTPIPRNSQDITPVDNSMDSNIHQRRNSYRGHESEDSMSTLAGRRGMRPKMMMPFDSQPPQPVISAHPIHSLDNPHHHFHSGSLASPTRSYLHHQVSPWPVGTSMSHSDRANSTESVRNTPSSDTMPASSSQPCADHQDPDSSSGAYLGSAQEEDAAQSLPTAHVRPSHPLKSFAVPAVPAAGSAYDPTLPSTPLLTQQAPSHPVHSVKTASIGTLGRTRPPMPVVVPSAPDVQETTRMLEDSESSYEPDELTKEMAHLEGLMKDLNAITTA | – | thicker axon bundles throughout the retina | about 2 fold | 682±21 | about 40% | – | – | – | – | – | – | 5.7 | 410±64 | 640±128 | 1134±68
